# Values of other authors as cited in PubChem BioAssay AID1259409 (Chemical Carcinogenesis Research Information System (CCRIS), 2018).
# Tested on: rodent chemically induced tumor inhibition, incidence and multiplicity
# Assay: CCRIS tumor inhibitor studies
compound,measurement,setting,value
COc1cc2c3cc1Oc1c(OC)c(OC)cc4c1[C@@H](Cc1ccc(O)c(c1)Oc1ccc(cc1)C[C@@H]3N(C)CC2)N(C)CC4,"tumour outcome (control, treated, inhibition, significance)","Carcinogen: 7,12-DIMETHYLBENZ[A]ANTHRACENE, 57-97-6, Dose [Inhibitor]: 0, 2 UMOL 2/WK 30 MIN PRIOR TO EACH PROMOTER DOSE BEGINNING 1 WK POST CARCINOGEN DOSE (STUDY DURATION: 18 WK), Route [Inhibitor]: DERMAL, Species: MOUSE, Strain/Sex: ICR/FEMALE, Target Tissue: Type of Lesion: SKIN: PAPILLOMA, Dose [Carcinogen]: 50 UG ONCE, Promoter: 12-O-TETRADECANOYLPHORBOL-13-ACETATE, 16561-29-8","100%, 20%, 80%, not calculated"
O=C(O)CC(O)(CC(=O)O)C(=O)O,"tumour outcome (control, treated, inhibition, significance)","Carcinogen: N-BUTYL-N-(4-HYDROXYBUTYL)NITROSAMINE, 3817-11-6, Dose [Inhibitor]: 4.85% IN BASAL DIET ADMINISTERED SIMULTANEOUSLY WITH CARCINOGEN DOSE FOR 20 WK (STUDY DURATION: 20 WK), Route [Inhibitor]: ORAL, Species: RAT, Strain/Sex: F344/MALE, Target Tissue: Type of Lesion: BLADDER: CARCINOMA, Dose [Carcinogen]: 0.025% IN DRINKING WATER FOR 20 WK, Promoter: NONE USED","3/15 (20%), 3/15 (20%), 0%, not significant"
same,"tumour outcome (control, treated, inhibition, significance)","Carcinogen: N-BUTYL-N-(4-HYDROXYBUTYL)NITROSAMINE, 3817-11-6, Dose [Inhibitor]: 4.85% IN BASAL DIET ADMINISTERED SIMULTANEOUSLY WITH CARCINOGEN DOSE FOR 20 WK (STUDY DURATION: 20 WK), Route [Inhibitor]: ORAL, Species: RAT, Strain/Sex: F344/MALE, Target Tissue: Type of Lesion: BLADDER: PAPILLOMA, Dose [Carcinogen]: 0.025% IN DRINKING WATER FOR 20 WK (FOR A TOTAL INTAKE OF 4.1 MMOL/RAT), Promoter: NONE USED","4/15 (27%), 2/15 (13%), 50%, not significant"
same,"tumour outcome (control, treated, inhibition, significance)","Carcinogen: N-BUTYL-N-(4-HYDROXYBUTYL)NITROSAMINE, 3817-11-6, Dose [Inhibitor]: 6.50% IN BASAL DIET ADMINISTERED SIMULTANEOUSLY WITH CARCINOGEN DOSE FOR 20 WK (STUDY DURATION: 20 WK), Route [Inhibitor]: ORAL, Species: RAT, Strain/Sex: F344/MALE, Target Tissue: Type of Lesion: BLADDER: CARCINOMA, Dose [Carcinogen]: 0.025% IN DRINKING WATER FOR 20 WK, Promoter: NONE USED","3/15 (20%), 12/15 (80%), -300%, p<0.01"
same,"tumour outcome (control, treated, inhibition, significance)","Carcinogen: N-BUTYL-N-(4-HYDROXYBUTYL)NITROSAMINE, 3817-11-6, Dose [Inhibitor]: 6.50% IN BASAL DIET ADMINISTERED SIMULTANEOUSLY WITH CARCINOGEN DOSE FOR 20 WK (STUDY DURATION: 20 WK), Route [Inhibitor]: ORAL, Species: RAT, Strain/Sex: F344/MALE, Target Tissue: Type of Lesion: BLADDER: PAPILLOMA, Dose [Carcinogen]: 0.025% IN DRINKING WATER FOR 20 WK (FOR A TOTAL INTAKE OF 6.8 MMOL/RAT), Promoter: NONE USED","4/15 (27%), 3/15 (20%), 25%, not significant"
same,"tumour outcome (control, treated, inhibition, significance)","Carcinogen: N-ETHYL-N-(4-HYDROXYBUTYL)NITROSAMINE, 54897-62-0, Dose [Inhibitor]: 4.85% IN BASAL DIET ADMINISTERED SIMULTANEOUSLY WITH CARCINOGEN DOSE FOR 20 WK (STUDY DURATION: 20 WK), Route [Inhibitor]: ORAL, Species: RAT, Strain/Sex: F344/MALE, Target Tissue: Type of Lesion: BLADDER: CARCINOMA, Dose [Carcinogen]: 0.021% IN DRINKING WATER FOR 20 WK, Promoter: NONE USED","13/15 (87%), 14/15 (93%), -8%, not significant"
same,"tumour outcome (control, treated, inhibition, significance)","Carcinogen: N-ETHYL-N-(4-HYDROXYBUTYL)NITROSAMINE, 54897-62-0, Dose [Inhibitor]: 4.85% IN BASAL DIET ADMINISTERED SIMULTANEOUSLY WITH CARCINOGEN DOSE FOR 20 WK (STUDY DURATION: 20 WK), Route [Inhibitor]: ORAL, Species: RAT, Strain/Sex: F344/MALE, Target Tissue: Type of Lesion: BLADDER: PAPILLOMA, Dose [Carcinogen]: 0.021% IN DRINKING WATER FOR 20 WK, Promoter: NONE USED","14/15 (93%), 13/15 (87%), 7%, not significant"
same,"tumour outcome (control, treated, inhibition, significance)","Carcinogen: N-ETHYL-N-(4-HYDROXYBUTYL)NITROSAMINE, 54897-62-0, Dose [Inhibitor]: 6.50% IN BASAL DIET ADMINISTERED SIMULTANEOUSLY WITH CARCINOGEN DOSE FOR 20 WK (STUDY DURATION: 20 WK), Route [Inhibitor]: ORAL, Species: RAT, Strain/Sex: F344/MALE, Target Tissue: Type of Lesion: BLADDER: CARCINOMA, Dose [Carcinogen]: 0.021% IN DRINKING WATER FOR 20 WK, Promoter: NONE USED","13/15 (87%), 15/15 (100%), -15%, not significant"
same,"tumour outcome (control, treated, inhibition, significance)","Carcinogen: N-ETHYL-N-(4-HYDROXYBUTYL)NITROSAMINE, 54897-62-0, Dose [Inhibitor]: 6.50% IN BASAL DIET ADMINISTERED SIMULTANEOUSLY WITH CARCINOGEN DOSE FOR 20 WK (STUDY DURATION: 20 WK), Route [Inhibitor]: ORAL, Species: RAT, Strain/Sex: F344/MALE, Target Tissue: Type of Lesion: BLADDER: PAPILLOMA, Dose [Carcinogen]: 0.021% IN DRINKING WATER FOR 20 WK, Promoter: NONE USED","14/15 (93%), 13/15 (87%), 7%, not significant"
same,"tumour outcome (control, treated, inhibition, significance)","Carcinogen: N-ETHYL-N-HYDROXYETHYLNITROSAMINE, 13147-25-6, Dose [Inhibitor]: 0, 5% IN DIET OF UNILATERALLY NEPHRECTOMIZED RATS BEGINNING POST CARCINOGEN TREATMENT AND CONTINUING FOR 18 WK (STUDY DU, Route [Inhibitor]: ORAL, Species: RAT, Strain/Sex: WISTAR/MALE, Target Tissue: Type of Lesion: KIDNEY: RENAL CELL TUMOR, Dose [Carcinogen]: 1000 PPM IN DIET FOR 2 WK, Promoter: POTASSIUM DIBASIC PHOSPHATE, 7758-11-4","15/15 (100%), 4/14 (29%), 71%, p<0.05"
C[Se]C[C@H](N)C(=O)O,"tumour outcome (control, treated, inhibition, significance)","Carcinogen: 7,12-DIMETHYLBENZ[A]ANTHRACENE, 57-97-6, Dose [Inhibitor]: 0, 0.000025 MOL/KG DIET BEGINNING 1 WK POST CARCINOGEN AND CONTINUED FOR STUDY DURATION (STUDY DURATION: 25 WK), Route [Inhibitor]: ORAL, Species: RAT, Strain/Sex: CD-1/FEMALE, Target Tissue: Type of Lesion: MAMMARY GLAND: ADENOCARCINOMA, Dose [Carcinogen]: 10 MG ONCE, Promoter: NONE USED","25/30 (83%), 15/30 (50%), 40%, p<0.05"
same,"tumour outcome (control, treated, inhibition, significance)","Carcinogen: 7,12-DIMETHYLBENZ[A]ANTHRACENE, 57-97-6, Dose [Inhibitor]: 0, 0.000025 MOL/KG DIET BEGINNING 2 WK PRIOR TO CARCINOGEN AND CONTINUED 1 WK POST CARCINOGEN (STUDY DURATION: 25 WK), Route [Inhibitor]: ORAL, Species: RAT, Strain/Sex: CD-1/FEMALE, Target Tissue: Type of Lesion: MAMMARY GLAND: ADENOCARCINOMA, Dose [Carcinogen]: 10 MG ONCE, Promoter: NONE USED","25/30 (83%), 17/30 (57%), 31%, p<0.05"
same,"tumour outcome (control, treated, inhibition, significance)","Carcinogen: 7,12-DIMETHYLBENZ[A]ANTHRACENE, 57-97-6, Dose [Inhibitor]: 0, 0.000025 MOL/KG DIET BEGINNING 2 WK PRIOR TO CARCINOGEN AND CONTINUED FOR STUDY DURATION (STUDY DURATION: 25 WK), Route [Inhibitor]: ORAL, Species: RAT, Strain/Sex: CD-1/FEMALE, Target Tissue: Type of Lesion: MAMMARY GLAND: ADENOCARCINOMA, Dose [Carcinogen]: 10 MG ONCE, Promoter: NONE USED","22/25 (88%), 10/25 (40%), 55%, p<0.05"
